Values after ≈ are worked out from the molar mass of the structure shown. Read-outs that look alike come from different tables or passages of the source.
Columns and labels:
Test in all cases: In vitro activity, dilution method in liquid medium (MIC)
Assay type in all cases: cell-based
Proteus vulgaris A 232 = details: read-out: concentrations minimales inhibitrices (C. M. I.)
Description: (§1) Etude pharmacologiaue des produits de l'invention. Activité in vitro, méthode des dilutions en milieu liquide.
(§2) On prépare une série de tubes dans lesquels on répartit une même quantité de milieu nutritif stérile. On distribue dans chaque tube des quantités croissantes du produit à étudier, puis chaque tube est ensemencé avec une souche bactérienne. Après incubation de vingt-quatre ou quarante-huit heures à l'étuve à 37°C, l'inhibition de la croissance est appréciée par transillumination ce qui permet de déterminer les concentrations minimales inhibitrices (C. M. I.) exprimées en µg/cm3.

Escherichia Coli DC0 = details: read-out: concentrations minimales inhibitrices (C. M. I.)
Description: as §1, §2

Proteus mirabilis A 235 = details: read-out: concentrations minimales inhibitrices (C. M. I.)
Description: as §1, §2

Providencia DU 48 = details: read-out: concentrations minimales inhibitrices (C. M. I.)
Description: as §1, §2

Escherichia Coli DC2 = details: read-out: concentrations minimales inhibitrices (C. M. I.)
Description: as §1, §2

Escherichia Coli 078 = details: read-out: concentrations minimales inhibitrices (C. M. I.)
Description: as §1, §2

Serratia marcesceus 2532 = details: read-out: concentrations minimales inhibitrices (C. M. I.)
Description: as §1, §2

Escherichia Coli 1894 = details: read-out: concentrations minimales inhibitrices (C. M. I.)
Description: as §1, §2

[1] = system: Enterobacter cloacae 1321 E; details: read-out: concentrations minimales inhibitrices (C. M. I.)
Description: as §1, §2

[2] = system: Klebsiella Aeruginosa 1522 E; details: read-out: concentrations minimales inhibitrices (C. M. I.)
Description: as §1, §2

Escherichia Coli 1507 E = details: COLI1507E, read-out: concentrations minimales inhibitrices (C. M. I.)
Description: as §1, §2

Escherichia Coli TEM = details: read-out: concentrations minimales inhibitrices (C. M. I.)
Description: as §1, §2

[3] = system: Salmonella typhimurium MZ 11; details: Salmonella enterica, read-out: concentrations minimales inhibitrices (C. M. I.)
Description: as §1, §2

[4] = system: Klebsiella pneumonae 52145; details: read-out: concentrations minimales inhibitrices (C. M. I.)
Description: as §1, §2

[5] = system: Pseudomonas aeruginosa 1771 m; details: read-out: concentrations minimales inhibitrices (C. M. I.)
Description: as §1, §2

[6] = COLIDC0, 24 H incubation at 37°C
[7] = COLIDC0, 48 H incubation at 37°C
[8] = COLIDC2, 24 H incubation at 37°C
[9] = COLIDC2, 48 H incubation at 37°C
[10] = COLI078, 24 H incubation at 37°C
[11] = COLI078, 48 H incubation at 37°C
[12] = COLI1894, 24 H incubation at 37°C
[13] = COLI1894, 48 H incubation at 37°C

Question: For `CO/N=C(\C(=O)N[C@@H]1C(=O)N(c2nn[nH]n2)[C@@H]1C)c1csc(N)n1` (racemic) [Prod. ex. 1, (3SR. 4RS) 3-//2-(2-aminothiazol-4-yl) 2-méthoxyimino acétyl/ amino/-4-méthyl 1-(1H-tétrazol-5-yl)-2-azétidinone isomère syn], which MIC (Proteus vulgaris A 232; A232, 24 H incubation at 37°C) is on record?
Answer: Its MIC is 0.3 µg/mL (≈ 0.854 µM).

Question: And the MIC (Proteus vulgaris A 232; A232, 48 H incubation at 37°C)?
Answer: Its MIC is 0.3 µg/mL (≈ 0.854 µM).

Question: What about the MIC (Escherichia Coli DC0; [6]) of the same compound?
Answer: Its MIC is 1.2 µg/mL (≈ 3.42 µM).

Question: What about the MIC (Escherichia Coli DC0; [7]) of the same compound?
Answer: Its MIC is 1.2 µg/mL (≈ 3.42 µM).

Question: And the MIC (Proteus mirabilis A 235; A235, 24 H incubation at 37°C)?
Answer: Its MIC is 0.15 µg/mL (≈ 0.427 µM).

Question: And the MIC (Proteus mirabilis A 235; A235, 48 H incubation at 37°C)?
Answer: The MIC was 0.15 µg/mL (≈ 0.427 µM).

Question: What about the MIC (Providencia DU 48; DU48, 24 H incubation at 37°C) of the same compound?
Answer: Its MIC is 0.6 µg/mL (≈ 1.71 µM).

Question: What about the MIC (Providencia DU 48; DU48, 48 H incubation at 37°C) of the same compound?
Answer: Its MIC is 0.6 µg/mL (≈ 1.71 µM).

Question: What about the MIC (Escherichia Coli DC2; [8]) of the same compound?
Answer: Its MIC is 0.6 µg/mL (≈ 1.71 µM).

Question: And the MIC (Escherichia Coli DC2; [9])?
Answer: The MIC was 0.6 µg/mL (≈ 1.71 µM).

Question: And the MIC (Escherichia Coli 078; [10])?
Answer: Its MIC is 0.3 µg/mL (≈ 0.854 µM).

Question: And the MIC (Escherichia Coli 078; [11])?
Answer: Its MIC is 0.3 µg/mL (≈ 0.854 µM).

Question: What about the MIC (Serratia marcesceus 2532; 24 H incubation at 37°C) of the same compound?
Answer: The MIC was 20 µg/mL (≈ 56.9 µM).

Question: And the MIC (Serratia marcesceus 2532; 48 H incubation at 37°C)?
Answer: The MIC was 20 µg/mL (≈ 56.9 µM).

Question: And the MIC (Escherichia Coli 1894; [12])?
Answer: Its MIC is 0.08 µg/mL (≈ 0.228 µM).

Question: And the MIC (Escherichia Coli 1894; [13])?
Answer: The MIC was 0.08 µg/mL (≈ 0.228 µM).

Question: And the MIC ([1]; 24 H incubation at 37°C)?
Answer: The MIC was 0.6 µg/mL (≈ 1.71 µM).

Question: And the MIC ([1]; 48 H incubation at 37°C)?
Answer: The MIC was 0.6 µg/mL (≈ 1.71 µM).

Question: And the MIC ([2]; 24 H incubation at 37°C)?
Answer: Its MIC is 1.2 µg/mL (≈ 3.42 µM).

Question: What about the MIC ([2]; 48 H incubation at 37°C) of the same compound?
Answer: The MIC was 1.2 µg/mL (≈ 3.42 µM).

Question: What about the MIC (Escherichia Coli 1507 E; 24 H incubation at 37°C) of the same compound?
Answer: The MIC was 0.3 µg/mL (≈ 0.854 µM).

Question: And the MIC (Escherichia Coli 1507 E; 48 H incubation at 37°C)?
Answer: The MIC was 0.3 µg/mL (≈ 0.854 µM).

Question: What about the MIC (Escherichia Coli TEM; 24 h) of the same compound?
Answer: Its MIC is 0.6 µg/mL (≈ 1.71 µM).

Question: What about the MIC (Escherichia Coli TEM; 48 h) of the same compound?
Answer: The MIC was 1.2 µg/mL (≈ 3.42 µM).

Question: And the MIC ([3]; 24 H incubation at 37°C)?
Answer: The MIC was 1.2 µg/mL (≈ 3.42 µM).

Question: And the MIC ([3]; 48 H incubation at 37°C)?
Answer: The MIC was 1.2 µg/mL (≈ 3.42 µM).

Question: And the MIC ([4]; 24 H incubation at 37°C)?
Answer: Its MIC is 1.2 µg/mL (≈ 3.42 µM).

Question: What about the MIC ([4]; 48 H incubation at 37°C) of the same compound?
Answer: Its MIC is 2.5 µg/mL (≈ 7.12 µM).

Question: What about the MIC ([5]; 24 H incubation at 37°C) of the same compound?
Answer: Its MIC is at most 5 µg/mL.

Question: What about the MIC ([5]; 48 H incubation at 37°C) of the same compound?
Answer: The MIC was at most 5 µg/mL.

Question: Which MIC (Proteus vulgaris A 232; A232, 24 H incubation at 37°C) does the source give for `C[C@@H]1[C@H](NC(=O)/C(=N\OCC(=O)O)c2csc(N)n2)C(=O)N1c1nn[nH]n1` (racemic) [Prod. ex. 6, (3SR, 4RS) 3-//2-(2-aminothiazol-4-yl) 2/-(carboxyméthoxy) imino/acétyl/amino/ 4-méthyl 1-(1H-tétrazol-5-yl) 2-azétidinone isomère syn] here?
Answer: The MIC was 0.08 µg/mL (≈ 0.202 µM).

Question: What about the MIC (Proteus vulgaris A 232; A232, 48 H incubation at 37°C) of the same compound?
Answer: Its MIC is 0.15 µg/mL (≈ 0.379 µM).

Question: And the MIC (Escherichia Coli DC0; [6])?
Answer: The MIC was 0.6 µg/mL (≈ 1.52 µM).

Question: And the MIC (Escherichia Coli DC0; [7])?
Answer: The MIC was 0.6 µg/mL (≈ 1.52 µM).

Question: And the MIC (Proteus mirabilis A 235; A235, 24 H incubation at 37°C)?
Answer: The MIC was 0.15 µg/mL (≈ 0.379 µM).

Question: And the MIC (Proteus mirabilis A 235; A235, 48 H incubation at 37°C)?
Answer: Its MIC is 0.15 µg/mL (≈ 0.379 µM).

Question: What about the MIC (Providencia DU 48; DU48, 24 H incubation at 37°C) of the same compound?
Answer: Its MIC is 0.6 µg/mL (≈ 1.52 µM).

Question: What about the MIC (Providencia DU 48; DU48, 48 H incubation at 37°C) of the same compound?
Answer: The MIC was 0.6 µg/mL (≈ 1.52 µM).

Question: And the MIC (Escherichia Coli DC2; [8])?
Answer: The MIC was 0.3 µg/mL (≈ 0.759 µM).

Question: And the MIC (Escherichia Coli DC2; [9])?
Answer: The MIC was 0.3 µg/mL (≈ 0.759 µM).

Question: And the MIC (Escherichia Coli 078; [10])?
Answer: The MIC was 0.3 µg/mL (≈ 0.759 µM).

Question: And the MIC (Escherichia Coli 078; [11])?
Answer: The MIC was 0.3 µg/mL (≈ 0.759 µM).

Question: What about the MIC (Serratia marcesceus 2532; 24 H incubation at 37°C) of the same compound?
Answer: Its MIC is 2.5 µg/mL (≈ 6.32 µM).

Question: And the MIC (Serratia marcesceus 2532; 48 H incubation at 37°C)?
Answer: The MIC was 5 µg/mL (≈ 12.6 µM).

Question: What about the MIC (Escherichia Coli 1894; [12]) of the same compound?
Answer: The MIC was 0.6 µg/mL (≈ 1.52 µM).

Question: And the MIC (Escherichia Coli 1894; [13])?
Answer: The MIC was 0.6 µg/mL (≈ 1.52 µM).

Question: And the MIC ([1]; 24 H incubation at 37°C)?
Answer: Its MIC is 0.3 µg/mL (≈ 0.759 µM).

Question: And the MIC ([1]; 48 H incubation at 37°C)?
Answer: Its MIC is 0.6 µg/mL (≈ 1.52 µM).

Question: And the MIC ([2]; 24 H incubation at 37°C)?
Answer: The MIC was 0.6 µg/mL (≈ 1.52 µM).

Question: And the MIC ([2]; 48 H incubation at 37°C)?
Answer: The MIC was 0.6 µg/mL (≈ 1.52 µM).

Question: What about the MIC (Escherichia Coli 1507 E; 24 H incubation at 37°C) of the same compound?
Answer: Its MIC is 0.6 µg/mL (≈ 1.52 µM).

Question: What about the MIC (Escherichia Coli 1507 E; 48 H incubation at 37°C) of the same compound?
Answer: The MIC was 0.6 µg/mL (≈ 1.52 µM).

Question: And the MIC (Escherichia Coli TEM; 24 h)?
Answer: Its MIC is 0.6 µg/mL (≈ 1.52 µM).

Question: What about the MIC (Escherichia Coli TEM; 48 h) of the same compound?
Answer: The MIC was 0.6 µg/mL (≈ 1.52 µM).

Question: What about the MIC ([3]; 24 H incubation at 37°C) of the same compound?
Answer: Its MIC is 0.6 µg/mL (≈ 1.52 µM).

Question: What about the MIC ([3]; 48 H incubation at 37°C) of the same compound?
Answer: The MIC was 0.6 µg/mL (≈ 1.52 µM).

Question: And the MIC ([4]; 24 H incubation at 37°C)?
Answer: The MIC was 2.5 µg/mL (≈ 6.32 µM).

Question: What about the MIC ([4]; 48 H incubation at 37°C) of the same compound?
Answer: Its MIC is 2.5 µg/mL (≈ 6.32 µM).

Question: And the MIC ([5]; 24 H incubation at 37°C)?
Answer: The MIC was 2.5 µg/mL (≈ 6.32 µM).

Question: What about the MIC ([5]; 48 H incubation at 37°C) of the same compound?
Answer: The MIC was 5 µg/mL (≈ 12.6 µM).

From patent EP0114128A1, “3-Amino-2-oxo-azetidine derivatives containing in position 1 a nitrogen heterocyclic radical, process for their preparation, their use as therapeutical agents and intermediates for their preparation” (priority 1983, dated 1984)
